According to ChEMBL document CHEMBL1126596, “Potent and selective inhibitors of an aspartyl protease-like endothelin converting enzyme identified in rat lung” (J Med Chem, 1993):

Tests used:
Cathepsin D = biological target: T1, Cathepsin D (Bos taurus, UniProt P80209); assay: Inhibition of conversion of hemoglobin by commercially purchased bovine spleen cathepsin D.
T1 sequence (P80209 whole entry): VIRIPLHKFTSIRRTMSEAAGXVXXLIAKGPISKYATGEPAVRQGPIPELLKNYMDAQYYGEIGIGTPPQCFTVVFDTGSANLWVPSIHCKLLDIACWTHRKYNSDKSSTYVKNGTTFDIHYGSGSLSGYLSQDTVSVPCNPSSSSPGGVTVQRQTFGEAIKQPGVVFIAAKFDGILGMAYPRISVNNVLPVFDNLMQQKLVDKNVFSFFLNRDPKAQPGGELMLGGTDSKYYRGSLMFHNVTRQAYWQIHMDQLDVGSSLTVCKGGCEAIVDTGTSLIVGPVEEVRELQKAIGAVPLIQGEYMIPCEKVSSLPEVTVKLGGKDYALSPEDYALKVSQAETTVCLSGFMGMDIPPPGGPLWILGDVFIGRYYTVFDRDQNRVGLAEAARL

Renin = biological target: T2, Renin (Homo sapiens, UniProt P00797); assay: In vitro inhibition of partially purified human renin at pH 6.0.
T2 sequence (P00797 whole entry): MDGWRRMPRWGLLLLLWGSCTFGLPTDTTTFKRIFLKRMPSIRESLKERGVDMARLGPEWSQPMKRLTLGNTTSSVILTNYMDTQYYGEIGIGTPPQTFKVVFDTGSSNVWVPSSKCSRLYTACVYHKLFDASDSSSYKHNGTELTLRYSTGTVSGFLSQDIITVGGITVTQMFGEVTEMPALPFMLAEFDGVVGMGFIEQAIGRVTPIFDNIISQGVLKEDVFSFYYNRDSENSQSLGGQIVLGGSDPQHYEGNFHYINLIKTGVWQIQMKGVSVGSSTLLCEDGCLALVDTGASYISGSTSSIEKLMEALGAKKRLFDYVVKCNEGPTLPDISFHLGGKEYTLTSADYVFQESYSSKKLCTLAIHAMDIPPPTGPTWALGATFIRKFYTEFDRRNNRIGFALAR

| SMILES | IC50 (Cathepsin D) [nM] | IC50 (Renin) [nM] |
| --- | --- | --- |
| CC[C@@H](C)[C@H](NC(=O)OC(C)(C)C)C(=O)N[C@H](C(=O)N[C@@H](CC(C)C)C(O)CC(=O)NC[C@@H](C)O)[C@H](C)CC (stereo not given in full) | 120 | – |
| CC[C@H](C)[C@H](NC(=O)[C@H](CC1CCCCC1)NC(=O)OC(C)(C)C)C(=O)N[C@@H](Cc1ccc2ccccc2c1)[C@@H](O)[C@@H](O)CC(C)C | 63 | > 10000 |
| CC[C@H](C)[C@H](NC(=O)[C@H](CC1CCCCC1)NC(=O)OC(C)(C)C)C(=O)N[C@@H](Cc1c[nH]c2ccccc12)C(O)CC(=O)N[C@H](C(=O)O)C(C)C (stereo not given in full) | 620 | > 10000 |
| CC[C@@H](C)[C@H](NC(=O)OC(C)(C)C)C(=O)N[C@H](C(=O)N[C@@H](Cc1c[nH]c2ccccc12)C(O)CC(=O)O)[C@H](C)CC (stereo not given in full) | > 10000 | > 10000 |
| CC[C@@H](C)[C@H](NC(=O)[C@H](CC1CCCCC1)NC(=O)CCC(=O)O)C(=O)N[C@@H](Cc1ccc2ccccc2c1)[C@@H](O)[C@@H](O)CC(C)C | 60 | – |
| CC[C@H](C)[C@H](NC(=O)OC(C)(C)C)C(=O)N[C@H](C(=O)N[C@@H](CC(C)C)C(O)CC(=O)NCC(C)C)[C@@H](C)CC (stereo not given in full) | 65 | > 10000 |
| CC[C@@H](C)[C@H](NC(=O)[C@H](CC1CCCCC1)NC(=O)OC(C)(C)C)C(=O)N[C@@H](CC(C)C)[C@@H](O)CC(=O)NCCN1CCOCC1 | 480 | – |
| CC[C@H](C)[C@H](NC(=O)[C@H](CC1CCCCC1)NC(C)=O)C(=O)N[C@@H](Cc1ccc2ccccc2c1)[C@@H](O)[C@@H](O)CC(C)C | 180 | – |
| CC[C@H](C)[C@H](NC(=O)OC(C)(C)C)C(=O)N[C@H](C(=O)N[C@@H](CC(C)C)C(O)CC(=O)NCC1CCCCC1)[C@@H](C)CC (stereo not given in full) | 540 | – |
| CC[C@@H](C)[C@H](NC(=O)OC(C)(C)C)C(=O)N[C@H](C(=O)N[C@@H](CC(C)C)C(O)CC(=O)NC(C)C)[C@H](C)CC (stereo not given in full) | 120 | – |
| CC[C@H](C)[C@H](NC(=O)[C@H](CC1CCCCC1)NC(=O)N(C)CCN(C)C)C(=O)N[C@@H](Cc1ccc2ccccc2c1)[C@@H](O)[C@@H](O)CC(C)C | 280 | 500 |
| CCC(C)[C@H](NC(=O)[C@H](CC1CCCCC1)NC(=O)N1CCOCC1)C(=O)N[C@@H](Cc1ccc2ccccc2c1)[C@@H](O)[C@@H](O)CC(C)C (stereo not given in full) | 68 | – |
| CCC(C)C(NC(=O)C(NC(=O)OC(C)(C)C)C(C)(C)C)C(=O)NC(CC(C)C)C(O)CC(=O)O (stereo not given) | 1100 | > 10000 |
| CC[C@H](C)[C@H](NC(=O)[C@H](CC1CCCCC1)NC(=O)OC(C)(C)C)C(=O)N[C@@H](CC(C)C)C(O)CC(=O)O (stereo not given in full) | 130 | > 10000 |
| CCOC(=O)CC(O)[C@H](CC(C)C)NC(=O)[C@@H](NC(=O)[C@H](CC(C)(C)C)NC(=O)OC(C)(C)C)[C@@H](C)CC (stereo not given in full) | 72 | – |
| CCOC(=O)CC(O)[C@H](CC(C)C)NC(=O)[C@@H](NC(=O)[C@@H](NC(=O)OC(C)(C)C)C1CCCCC1)[C@@H](C)CC (stereo not given in full) | 93 | – |
| CC[C@@H](C)[C@H](NC(=O)OC(C)(C)C)C(=O)N[C@H](C(=O)N[C@@H](CC(C)C)C(O)CC(=O)NCCC(C)C)[C@H](C)CC (stereo not given in full) | 82 | – |
| CC[C@H](C)[C@H](NC(=O)[C@H](CC1CCCCC1)NS(=O)(=O)N1CCN(C)CC1)C(=O)N[C@@H](Cc1ccc2ccccc2c1)[C@@H](O)[C@@H](O)CC(C)C | 110 | – |
| CC[C@@H](C)[C@H](NC(=O)OC(C)(C)C)C(=O)N[C@H](C(=O)N[C@@H](CC(C)C)C(O)CC(=O)N(C)CC(C)C)[C@H](C)CC (stereo not given in full) | 58 | > 10000 |
| CCOC(=O)CCNC(=O)CC(O)[C@H](CC(C)C)NC(=O)[C@@H](NC(=O)[C@@H](NC(=O)OC(C)(C)C)C(C)CC)C(C)CC (stereo not given in full) | 60 | – |
| CC[C@@H](C)[C@H](NC(=O)OC(C)(C)C)C(=O)N[C@H](C(=O)N[C@@H](Cc1cccc2ccccc12)[C@@H](O)[C@@H](O)CC(C)C)[C@H](C)CC | > 10000 | > 10000 |
| CC[C@H](C)[C@H](NC(=O)[C@H](CC1CCCCC1)NC(=O)OC(C)(C)C)C(=O)N[C@@H](CC(C)C)[C@@H](O)CC(=O)NCC(C)C | 16 | 1400 |
| CC[C@H](C)[C@H](NC(=O)OC(C)(C)C)C(=O)N[C@H](C(=O)N[C@@H](CC(C)C)C(O)CC(N)=O)[C@@H](C)CC (stereo not given in full) | 410 | – |
| CC[C@@H](C)[C@H](NC(=O)[C@H](CC1CCCCC1)NC(=O)OC(C)(C)C)C(=O)N[C@@H](Cc1cccc2ccccc12)[C@@H](O)[C@@H](O)CC(C)C | > 10000 | – |
| CCC(C)[C@H](NC(=O)[C@@H](NC(=O)OC(C)(C)C)[C@@H](C)OC(C)(C)C)C(=O)N[C@@H](CC(C)C)C(O)CC(=O)O (stereo not given in full) | 1300 | – |
